Source: the NIST ThermoML archive (doi:10.1021/je0502546)

What was measured:
[1] = refractive index (Na D-line) (dimensionless); details: 101.33 kPa, Liquid, Standard Abbe refractometry
[2] = 101 kPa, Liquid; for viscosity: Capillary tube (Ostwald / Ubbelohde) method
[3] = refractive index (Na D-line) (dimensionless); xn = mol fraction of the nth substance listed; details: 101 kPa, Liquid, Standard Abbe refractometry
[4] = xn = mol fraction of the nth substance listed; details: 101 kPa, Liquid; for viscosity: Capillary tube (Ostwald / Ubbelohde) method

COc1ccccc1 [anisole]
Details	mass density, [2] [kg/m3]	refractive index, [1]	viscosity, [2] [mPa·s]
293.15 K	993.8	1.5177	1.084
303.15 K	984.37	1.5124	0.931

COc1ccccc1 [anisole] + CCCCc1ccccc1
x1 = 1
Details	mass density, [4] [kg/m3]	refractive index, [3]	viscosity, [4] [mPa·s]
293.15 K	993.8	1.5177	1.084
303.15 K	984.37	1.5124	0.931

COc1ccccc1 [anisole] + CCCc1ccccc1
x1 = 1
Details	mass density, [4] [kg/m3]	refractive index, [3]	viscosity, [4] [mPa·s]
293.15 K	993.8	1.5177	1.084
303.15 K	984.37	1.5124	0.931

COc1ccccc1 [anisole] + CCc1ccccc1
Details	mass density, [4] [kg/m3]	refractive index, [3]	viscosity, [4] [mPa·s]
293.15 K, x1 = 0.1061	879.21	1.4977	0.691
293.15 K, x1 = 0.2202	892.9	1.5	0.721
293.15 K, x1 = 0.3206	905.19	1.502	0.752
293.15 K, x1 = 0.4278	918.51	1.5041	0.789
293.15 K, x1 = 0.5402	932.69	1.5065	0.834
293.15 K, x1 = 0.6322	944.49	1.5086	0.876
293.15 K, x1 = 0.7282	956.99	1.5108	0.923
293.15 K, x1 = 0.8198	969.11	1.513	0.973
293.15 K, x1 = 0.8994	979.84	1.5153	1.02
293.15 K, x1 = 1	993.8	1.5177	1.084
303.15 K, x1 = 0.1061	870.49	1.4922	0.616
303.15 K, x1 = 0.2202	884.19	1.4944	0.639
303.15 K, x1 = 0.3206	896.45	1.4964	0.662
303.15 K, x1 = 0.4278	909.71	1.4986	0.689
303.15 K, x1 = 0.5402	923.84	1.501	0.725
303.15 K, x1 = 0.6322	935.58	1.5031	0.759
303.15 K, x1 = 0.7282	948.02	1.5053	0.798
303.15 K, x1 = 0.8198	960.07	1.5075	0.841
303.15 K, x1 = 0.8994	970.71	1.5099	0.878
303.15 K, x1 = 1	984.37	1.5124	0.931

COc1ccccc1 [anisole] + Cc1ccccc1
Details	mass density, [4] [kg/m3]	refractive index, [3]	viscosity, [4] [mPa·s]
293.15 K, x1 = 0.0966	879.58	1.4993	0.62
293.15 K, x1 = 0.1954	892.47	1.5016	0.656
293.15 K, x1 = 0.2911	904.89	1.5037	0.693
293.15 K, x1 = 0.3936	918.06	1.506	0.736
293.15 K, x1 = 0.5043	932.17	1.5083	0.787
293.15 K, x1 = 0.5985	944.06	1.5102	0.834
293.15 K, x1 = 0.6995	956.7	1.5122	0.89
293.15 K, x1 = 0.7956	968.63	1.514	0.947
293.15 K, x1 = 0.8986	981.29	1.5159	1.013
293.15 K, x1 = 1	993.8	1.5177	1.084
303.15 K, x1 = 0.0966	870.21	1.4936	0.549
303.15 K, x1 = 0.1954	883.13	1.4959	0.579
303.15 K, x1 = 0.2911	895.55	1.4981	0.61
303.15 K, x1 = 0.3936	908.76	1.5003	0.645
303.15 K, x1 = 0.5043	922.89	1.5027	0.687
303.15 K, x1 = 0.5985	934.8	1.5046	0.726
303.15 K, x1 = 0.6995	947.44	1.5067	0.772
303.15 K, x1 = 0.7956	959.38	1.5085	0.818
303.15 K, x1 = 0.8986	972.06	1.5105	0.872
303.15 K, x1 = 1	984.37	1.5124	0.931

COc1ccccc1 [anisole] + c1ccccc1
Details	mass density, [4] [kg/m3]	refractive index, [3]	viscosity, [4] [mPa·s]
293.15 K, x1 = 0.0938	889.8	1.5032	0.677
293.15 K, x1 = 0.1955	903.56	1.5053	0.711
293.15 K, x1 = 0.3053	917.74	1.5074	0.751
293.15 K, x1 = 0.3994	929.35	1.5091	0.788
293.15 K, x1 = 0.5	941.27	1.5108	0.829
293.15 K, x1 = 0.6005	952.68	1.5124	0.874
293.15 K, x1 = 0.6996	963.47	1.5139	0.921
293.15 K, x1 = 0.8013	974.11	1.5153	0.972
293.15 K, x1 = 0.8978	983.8	1.5166	1.025
293.15 K, x1 = 1	993.8	1.5177	1.084
303.15 K, x1 = 0.0938	881.47	1.4967	0.587
303.15 K, x1 = 0.1955	895.16	1.4989	0.616
303.15 K, x1 = 0.3053	909.24	1.5011	0.649
303.15 K, x1 = 0.3994	920.76	1.5028	0.679
303.15 K, x1 = 0.5	932.57	1.5046	0.714
303.15 K, x1 = 0.6005	943.88	1.5064	0.751
303.15 K, x1 = 0.6996	954.56	1.508	0.791
303.15 K, x1 = 0.8013	965.08	1.5096	0.836
303.15 K, x1 = 0.8978	974.66	1.511	0.88
303.15 K, x1 = 1	984.37	1.5124	0.931

c1ccccc1 [benzene]
Details	mass density, [2] [kg/m3]	refractive index, [1]	viscosity, [2] [mPa·s]
293.15 K	877.43	1.5011	0.647
303.15 K	868.26	1.4947	0.563

c1ccccc1 [benzene] + COc1ccccc1
x2 = 0
Details	mass density, [4] [kg/m3]	refractive index, [3]	viscosity, [4] [mPa·s]
293.15 K	877.43	1.5011	0.647
303.15 K	868.26	1.4947	0.563

CCCCc1ccccc1 [butylbenzene] + COc1ccccc1
Details	mass density, [4] [kg/m3]	refractive index, [3]	viscosity, [4] [mPa·s]
293.15 K, x2 = 0	861.26	1.4895	1.034
293.15 K, x2 = 0.1238	873.01	1.4923	1.005
293.15 K, x2 = 0.225	884.01	1.4948	0.985
293.15 K, x2 = 0.3541	898.83	1.498	0.971
293.15 K, x2 = 0.48	914.4	1.5014	0.965
293.15 K, x2 = 0.581	927.77	1.5042	0.97
293.15 K, x2 = 0.67	940.23	1.5068	0.983
293.15 K, x2 = 0.7672	954.65	1.5097	1.002
293.15 K, x2 = 0.8483	967.5	1.5123	1.027
293.15 K, x2 = 0.9201	979.53	1.5148	1.052
303.15 K, x2 = 0	852.23	1.4845	0.893
303.15 K, x2 = 0.1238	865.04	1.4872	0.872
303.15 K, x2 = 0.225	875.92	1.4896	0.855
303.15 K, x2 = 0.3541	890.71	1.4927	0.841
303.15 K, x2 = 0.48	906.13	1.4961	0.837
303.15 K, x2 = 0.581	919.36	1.4989	0.842
303.15 K, x2 = 0.67	931.73	1.5014	0.851
303.15 K, x2 = 0.7672	946.15	1.5043	0.867
303.15 K, x2 = 0.8483	958.84	1.5068	0.885
303.15 K, x2 = 0.9201	970.6	1.5093	0.905

CCc1ccccc1 [ethylbenzene] + COc1ccccc1
x2 = 0
Details	mass density, [4] [kg/m3]	refractive index, [3]	viscosity, [4] [mPa·s]
293.15 K	866.95	1.4957	0.669
303.15 K	858.01	1.4902	0.596

CCCc1ccccc1 [propylbenzene] + COc1ccccc1
Details	mass density, [4] [kg/m3]	refractive index, [3]	viscosity, [4] [mPa·s]
293.15 K, x2 = 0	863.13	1.4916	0.855
293.15 K, x2 = 0.1216	876.73	1.4944	0.857
293.15 K, x2 = 0.2422	890.73	1.4972	0.862
293.15 K, x2 = 0.3455	903.18	1.4996	0.874
293.15 K, x2 = 0.4531	916.62	1.5023	0.892
293.15 K, x2 = 0.5658	931.23	1.5051	0.915
293.15 K, x2 = 0.6574	943.52	1.5076	0.94
293.15 K, x2 = 0.7486	956.19	1.5101	0.971
293.15 K, x2 = 0.8349	968.57	1.5126	1.005
293.15 K, x2 = 0.916	980.65	1.515	1.042
303.15 K, x2 = 0	854.71	1.4858	0.744
303.15 K, x2 = 0.1216	868.36	1.4886	0.748
303.15 K, x2 = 0.2422	882.36	1.4914	0.752
303.15 K, x2 = 0.3455	894.78	1.4939	0.758
303.15 K, x2 = 0.4531	908.15	1.4966	0.77
303.15 K, x2 = 0.5658	922.67	1.4995	0.79
303.15 K, x2 = 0.6574	934.9	1.5019	0.812
303.15 K, x2 = 0.7486	947.46	1.5045	0.84
303.15 K, x2 = 0.8349	959.71	1.507	0.87
303.15 K, x2 = 0.916	971.62	1.5095	0.899

Cc1ccccc1 [toluene] + COc1ccccc1
x2 = 0
Details	mass density, [4] [kg/m3]	refractive index, [3]	viscosity, [4] [mPa·s]
293.15 K	866.88	1.4962	0.588
303.15 K	857.46	1.4914	0.523
